According to patent US10925858B2, “S-nitrosoglutathione (GSNO) and GSNO reductase inhibitors for use in therapy” (MUSC FOUNDATION FOR RESEARCH DEVELOPMENT, priority 2017, dated 2021):

How the values were obtained:
BBB leakage = assay: BBB disruption by Evans blue extravasation in CCI rat model of TBI; format: in vivo, Sprague Dawley rats; conditions: 24 hr after TBI; GSNO 0.05 mg/kg i.v. or FeTPPS 3 mg/kg i.v. right after impact
Description: All animals used in this study received humane care in compliance with the Medical University of South Carolina's (MUSC) guidance and the National Research Council's criteria for humane care. Animal procedures were approved by the institutional animal care and use committee of MUSC (AR #2703). For generation of CCI model of TBI, young adult male (˜3-4 months old) Sprague Dawley rats weighing between 260-300 g were randomly divided into four groups: 1) TBI animals treated with vehicle (TBI; n=13), 2) TBI with GSNO (0.05 mg/kg body weight/i.v.) treatment (TBI+GSNO; n=13), 3) TBI with FeTPPS (3 mg/kg body weight, i.v.) treatment (TBI+FeTPPS; n=13), 4) sham-operated treated with vehicle (Sham; n=13). The group size was determined by power analysis based on our previous data (Khan et al., 2016b; Khan et al., 2009). Ketamine (90 mg/kg body weight) and xylazine (10 mg/kg body weight) as surgical anesthesia were administered intraperitoneally. Analgesic buprenorphine was administered pre-emptively to alleviate pain following surgery. […]
BBB leakage was assessed as previously described from our laboratory (Khan et al., 2016b; Khan et al., 2009). […] The brain tissues were homogenized in 750 μl of N, N-dimethylformamide (DMF) and centrifuged at 10,000×g for 25 minutes, and EB content in supernatant was fluorimetrically analyzed (λex 620 nm, λem 680 nm).

myelin = assay: Spinal cord demyelination (MBP staining and Western) in EAE mice; format: in vivo, C57BL/6J mice; conditions: GSNO 1 mg/kg/day or FeTPPS 30 mg/kg/day i.p.
Procedure: (§1) Western immunoblot analysis was performed by standard method using 50 μg of cell lysates. Following the SDS-PAGE electrophoresis, proteins were transferred from the gel onto the Polyvinylidene fluoride membrane (GE Healthcare Life Sciences, Marlborough, Mass.). […]
(§2) EAE was induced as described previously (Nath et al., 2009). […] The group size was determined by power analysis based on our previous data (Nadi et al., 2009). […] Clinical signs of EAE were scored in animal facility in a blinded fashion to experimenter between 2 and 4 pm daily by examiners blinded to experimental treatments using the following scale: 0=no clinical signs of disease; 1=limp tail or waddling gait with tail tonicity; 2=waddling gait with limp tail (ataxia); 2.5=ataxia with partial limb paralysis; 3=full paralysis of one limb; 3.5=full paralysis of one limb with partial paralysis of second limb; 4=full paralysis of two limbs; 4.5=moribund stage; 5=death. […]
Animals were anesthetized and fixed with cardiac perfusion of 4% paraformaldehyde (Nath et al., 2004). […] To assess the status of myelin, the sections were stained with antibody specific to MBP and detected with secondary antibody conjugated with immunofluorescent analysis. […]

3-nitrotyrosine = assay: Nitrotyrosine levels in spinal cords of EAE mice, Western; format: in vivo, C57BL/6J mice; conditions: day 24 post-immunization; GSNO 1 mg/kg/day or FeTPPS 30 mg/kg/day i.p.
Procedure: as §1, §2

SMILES | TBI-induced increase in Evan's blue extravasation (BBB leakage) | protection of myelin in the spinal cord (myelin) | EAE-induced nitrotyrosine levels in spinal cords (3-nitrotyrosine)
N[C@@H](CCC(=O)N[C@@H](CSN=O)C(=O)NCC(=O)O)C(=O)O [GSNO, S-nitrosoglutathione] | reduced | protected myelin | significantly decreased
Cl.O=S(=O)([O-])c1ccc(-c2c3nc(c(-c4ccc(S(=O)(=O)O)cc4)c4ccc([nH]4)c(-c4ccc(S(=O)(=O)O)cc4)c4nc(c(-c5ccc(S(=O)(=O)O)cc5)c5ccc2[nH]5)C=C4)C=C3)cc1.[Fe] [FeTPPS, 5,10,15,20-Tetrakis(4-sulfonatophenyl)porphyrinato Iron (III), Cl, reference compound] | reduced | protected myelin | significantly decreased
